Marks after values point to notes of the source that are not given here.
How the values were obtained:
[1] = test system: fibroblasts from patients affected by different lysosomal storage diseases; experiment: Cell viability, MTT assay; format: cell-based, human; parameters: key to Decrease of Cell Viability (%): N.S.: non significant decrease; details: for Decrease of Cell Viability (%): 72 h
Method: Fibroblasts from thirteen patients affected by seven different lysosomal storage diseases (Fabry, Gaucher, Hurler, Niemann-Pick type A/B, Sanfilippo A, Sanfilippo B and Tay-Sachs) were cultured in DMEM (Dulbecco's modified Eagles medium) with 10% fetal bovine serum and in the presence of antibiotics (penicillin and streptomycin), at 37° C. with 5% CO2. All reagents were purchased from PAA Laboratories (Velizy-Villacoublay, France). The fibroblasts of the patients were selected on the basis of availability of fibroblasts and measurable residual activity. The use of human samples was approved by the Ethical Committee of Hospital Clinic, Barcelona
Fibroblasts of early passage (between 5 and 9 passages) were plated in 6- or 24-well plates depending on the test and were treated for 72 hours with increasing concentrations (10 nmol/L, 100 nmol/L, 1 μmol/L, 10 μmol/L, 50 μmol/L and 100 μmol/L) of bicalutamide (Sigma-Aldrich, St. Louis, USA) and (R)- and (S)-bicalutamide (Toronto Research Chemicals Inc., Toronto (Ontario), Canada). Cell viability was evaluated in each cell line for each concentration using the 3-[4,5-dimethylthiazol-2-yl]-2,5-diphenyl tetrazolium bromide (MTT) assay (Sigma-aldrich, St. Louis, USA) described by Sumantran V. N. Cellular chemosensitivity assays: an overview. Methods Mol. Biol. (2011), 731, 219-236.
Fibroblasts from thirteen patients with different lysosomal storage diseases (four patients affected by Sanfilippo B disease patients with different genotypes, three Sanfilippo A disease patients with different genotypes, two Tay-Sachs disease patients with the same genotype, one Gaucher disease patient, one Niemann-PickA/B disease patient, one Hurler disease patient and one Fabry disease patient) were independently treated with different concentrations of (R)- and (S)-bicalutamide (50 and 100 μM). Cell viability was evaluated for each treatment in each cell line using the MTT assay.

[2] = cited from earlier work
[3] = Table 3 patient 1, Sanfilippo B fibroblasts, 50 μM
[4] = Table 3 patient 1, Sanfilippo B fibroblasts, 100 μM
[5] = Table 3 patient 2, Sanfilippo B fibroblasts, 50 μM
[6] = Table 3 patient 2, Sanfilippo B fibroblasts, 100 μM
[7] = Table 3 patient 3, Sanfilippo B fibroblasts, 50 μM
[8] = Table 3 patient 3, Sanfilippo B fibroblasts, 100 μM
[9] = Table 3 patient 4, Sanfilippo B fibroblasts, 50 μM
[10] = Table 3 patient 4, Sanfilippo B fibroblasts, 100 μM
[11] = Table 3 patient 5, Sanfilippo A fibroblasts, 50 μM
[12] = Table 3 patient 5, Sanfilippo A fibroblasts, 100 μM
[13] = Table 3 patient 6, Sanfilippo A fibroblasts, 50 μM
[14] = Table 3 patient 6, Sanfilippo A fibroblasts, 100 μM
[15] = Table 3 patient 7, Sanfilippo A fibroblasts, 50 μM
[16] = Table 3 patient 7, Sanfilippo A fibroblasts, 100 μM
[17] = Table 3 patient 8, Tay-Sachs fibroblasts, 50 μM
[18] = Table 3 patient 8, Tay-Sachs fibroblasts, 100 μM
[19] = Table 3 patient 9, Tay-Sachs fibroblasts, 50 μM
[20] = Table 3 patient 9, Tay-Sachs fibroblasts, 100 μM
[21] = Table 3 patient 10, Gaucher fibroblasts, 50 μM
[22] = Table 3 patient 10, Gaucher fibroblasts, 100 μM
[23] = Table 3 patient 11, Niemann-Pick AB fibroblasts, 50 μM
[24] = Table 3 patient 11, Niemann-Pick AB fibroblasts, 100 μM
[25] = Table 3 patient 12, Hurler fibroblasts, 50 μM
[26] = Table 3 patient 12, Hurler fibroblasts, 100 μM
[27] = Table 3 patient 13, Fabry fibroblasts, 50 μM
[28] = Table 3 patient 13, Fabry fibroblasts, 100 μM

| Compound | Decrease of Cell Viability (%) [1, 3] | Decrease of Cell Viability (%) [1, 4] | Decrease of Cell Viability (%) [1, 5] | Decrease of Cell Viability (%) [1, 6] | Decrease of Cell Viability (%) [1, 7] | Decrease of Cell Viability (%) [1, 8] | Decrease of Cell Viability (%) [1, 9] | Decrease of Cell Viability (%) [1, 10] | Decrease of Cell Viability (%) [1, 11] | Decrease of Cell Viability (%) [1, 12] | Decrease of Cell Viability (%) [1, 13] | Decrease of Cell Viability (%) [1, 14] | Decrease of Cell Viability (%) [1, 15] | Decrease of Cell Viability (%) [1, 16] | Decrease of Cell Viability (%) [1, 17] | Decrease of Cell Viability (%) [1, 18] | Decrease of Cell Viability (%) [1, 19] | Decrease of Cell Viability (%) [1, 20] | Decrease of Cell Viability (%) [1, 21] | Decrease of Cell Viability (%) [1, 22] | further results |
| --- | --- | --- | --- | --- | --- | --- | --- | --- | --- | --- | --- | --- | --- | --- | --- | --- | --- | --- | --- | --- | --- |
| C[C@@](O)(CS(=O)(=O)c1ccc(F)cc1)C(=O)Nc1ccc(C#N)c(C(F)(F)F)c1 (single isomer, unassigned) [(R)-BICALUTAMIDE (2)] | 20* % | 37* % | 10* % | 26* % | 40* % | 52* % | 0% | 25* % | N.S. | N.S. | 0% | 0% | 0% | 0% | 0% | 0% | 0% | N.S. | 0% | 24* % | Decrease of Cell Viability (%) [1, 23]: 0%; Decrease of Cell Viability (%) [1, 24]: 0%; Decrease of Cell Viability (%) [1, 25]: 0%; Decrease of Cell Viability (%) [1, 26]: 0%; Decrease of Cell Viability (%) [1, 27]: 0%; Decrease of Cell Viability (%) [1, 28]: 0%; half life in plasma ([2]; in vivo): 1 week; concentrations in plasma at the steady state relative to (S)-bicalutamide ([2]; steady state, (R)- versus (S)-bicalutamide): 100 times |
| C[C@@](O)(CS(=O)(=O)c1ccc(F)cc1)C(=O)Nc1ccc(C#N)c(C(F)(F)F)c1 [(S)-BICALUTAMIDE (1), (2S)-N-[4-cyano-3-(trifluoromethyl)phenyl]-3-[(4-fluorophenyl)sulfonyl]-2-hydroxy-2-methylpropanamide] | 0% | 0% | 0% | 0% | 0% | 0% | 0% | N.S. | 0% | 0% | 0% | 0% | 0% | 0% | 0% | 0% | 0% | N.S. | N.S. | N.S. | Decrease of Cell Viability (%) [1, 23]: N.S.; Decrease of Cell Viability (%) [1, 24]: N.S.; Decrease of Cell Viability (%) [1, 25]: 0%; Decrease of Cell Viability (%) [1, 26]: 0%; Decrease of Cell Viability (%) [1, 27]: 0%; Decrease of Cell Viability (%) [1, 28]: 0%; decrease of cell viability (in words) ([1]; thirteen fibroblast cultures, 50 and 100 μM): did not show any significant decrease of cell viability |

— patent US11571407B2, “Bicalutamide analogs or (S)-bicalutamide as exocytosis activating compounds for use in the treatment of a lysosomal storage disorder or glycogenosis” (BCN PEPTIDES, S.A., priority 2013, dated 2023)
